{"source": "paper PMC11099021", "about": "“Mycobacterial biotin synthases require an auxiliary protein to convert dethiobiotin into biotin” (Nature Communications, 2024)", "molecules": {"B1": {"name": "BioB (protein)", "chain": "TQAATRPTNDAGQDGGNNSDILVVARQQVLQRGEGLNQDQVLAVLQLPDDRLEELLALAHEVRMRWCGPEVEVEGIISLKTGGCPEDCHFCSQSGLFASPVRSAWLDIPSLVEAAKQTAKSGATEFCIVAAVRGPDERLMAQVAAGIEAIRNEVEINIACSLGMLTAEQVDQLAARGVHRYNHNLETARSFFANVVTTHTWEERWQTLSMVRDAGMEVCCGGILGMGETLQQRAEFAAELAELGPDEVPLNFLNPRPGTPFADLEVMPVGDALKAVAAFRLALPRTMLRFAGGREITLGDLGAKRGILGGINAVIVGNYLTTLGRPAEADLELLDELQMPLKALNASL"}}, "key": {"BioB.tb-BsaP": {"biological_target": "BioB.tb-BsaP (Mycobacterium tuberculosis, UniProt P9WPQ7)", "experiment": "biotin formation by LC-MS, Morrison fit", "type": "biochemical", "from_the_text": "biotin formation by LC-MS, Morrison fit on BioB.tb-BsaP | acidomycin is indeed a potent inhibitor of BioB.tb displaying an inhibition constant Ki of […]"}, "BioB.ec": {"biological_target": "T1, BioB.ec (Escherichia coli, UniProt P12996)", "T1 sequence (P12996 1-346)": "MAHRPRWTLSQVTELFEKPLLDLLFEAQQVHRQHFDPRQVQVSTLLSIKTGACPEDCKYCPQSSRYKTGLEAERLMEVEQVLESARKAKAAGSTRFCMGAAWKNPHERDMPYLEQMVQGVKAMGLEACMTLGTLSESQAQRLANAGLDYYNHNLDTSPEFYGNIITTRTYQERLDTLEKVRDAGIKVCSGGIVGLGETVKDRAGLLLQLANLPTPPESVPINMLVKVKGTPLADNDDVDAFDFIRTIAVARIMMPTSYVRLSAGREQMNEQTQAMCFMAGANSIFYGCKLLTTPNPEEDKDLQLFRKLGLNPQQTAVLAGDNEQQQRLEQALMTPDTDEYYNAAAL", "experiment": "biotin formation by LC-MS", "type": "biochemical", "conditions": "100 µM DTB, 100 µM SAM; FldA/FNR/NADPH, MtnN; pH 8.0; 37 °C; anaerobic; without BsaP"}, "BsaP": {"biological_target": "T2, BsaP (Mycobacterium tuberculosis, UniProt P9WLT6)", "T2 chain": "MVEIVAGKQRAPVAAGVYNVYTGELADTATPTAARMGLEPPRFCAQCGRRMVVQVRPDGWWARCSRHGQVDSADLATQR"}}}
{"molecule": "O=C(O)CCCCC[C@@H]1NC(=O)CS1", "note": "[acidomycin]", "values": [{"measurement": "Ki", "setting": "BioB.tb-BsaP", "result": 110, "unit": "nM"}]}
{"molecule": "C[C@@H]1NC(=O)N[C@@H]1CCCCCC(=O)O", "note": "[DTB]", "values": [{"measurement": "biotin formation by LC-MS", "setting": "BioB.ec", "result": "No difference in biotin production was observed when BsaP was added to BioB.ec"}]}
{"molecule": "B1", "values": [{"measurement": "Kd", "setting": "BsaP", "result": 950, "unit": "nM"}]}
